Results published in patent US9862708B2, “Pyrazolone compounds and uses thereof” (Tempest Therapeutics, Inc., priority 2014, dated 2018).
Read-outs that look alike come from different tables or passages of the source.

Experiments:
Format in all cases: cell-based
human PPARα = target: T1, human PPARα (Homo sapiens, UniProt Q07869); assay: Human PPARα Reporter Assay (luciferase, Indigo Biosciences)
T1 construct: host or cells: proprietary non-human mammalian cells
T1 sequence (Q07869 1-468): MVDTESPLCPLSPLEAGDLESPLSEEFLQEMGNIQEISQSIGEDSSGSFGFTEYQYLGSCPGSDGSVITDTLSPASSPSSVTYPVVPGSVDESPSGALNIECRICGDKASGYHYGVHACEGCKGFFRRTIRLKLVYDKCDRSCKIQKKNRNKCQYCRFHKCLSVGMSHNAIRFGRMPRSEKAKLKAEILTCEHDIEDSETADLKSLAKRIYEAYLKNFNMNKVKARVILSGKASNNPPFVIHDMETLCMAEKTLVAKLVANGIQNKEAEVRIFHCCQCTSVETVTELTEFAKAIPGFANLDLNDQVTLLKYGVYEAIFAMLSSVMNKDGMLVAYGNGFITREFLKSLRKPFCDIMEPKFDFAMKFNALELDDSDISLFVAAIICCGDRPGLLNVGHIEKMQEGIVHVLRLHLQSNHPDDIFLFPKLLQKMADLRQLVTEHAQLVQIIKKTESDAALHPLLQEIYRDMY
How it was run: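 Non-human mammalian cells constitutively expressing human PPARα with a PPARα-responsive luciferase reporter were dosed with compounds right after plating. After overnight incubation, media removed and detection reagent added; luminescence taken as proportional to PPARα activation, agonist or antagonist mode.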

PPAR beta/delta = target: T2, PPAR beta/delta (Homo sapiens, UniProt Q03181); assay: PPAR β/δ reporter counterscreen (Indigo Biosciences kit); settings: receptor agonist at ~EC80 for antagonist potency
T2 construct: host or cells: engineered reporter cells of the kit (analogous to the PPARα kit: non-human mammalian)
T2 sequence (Q03181 1-441): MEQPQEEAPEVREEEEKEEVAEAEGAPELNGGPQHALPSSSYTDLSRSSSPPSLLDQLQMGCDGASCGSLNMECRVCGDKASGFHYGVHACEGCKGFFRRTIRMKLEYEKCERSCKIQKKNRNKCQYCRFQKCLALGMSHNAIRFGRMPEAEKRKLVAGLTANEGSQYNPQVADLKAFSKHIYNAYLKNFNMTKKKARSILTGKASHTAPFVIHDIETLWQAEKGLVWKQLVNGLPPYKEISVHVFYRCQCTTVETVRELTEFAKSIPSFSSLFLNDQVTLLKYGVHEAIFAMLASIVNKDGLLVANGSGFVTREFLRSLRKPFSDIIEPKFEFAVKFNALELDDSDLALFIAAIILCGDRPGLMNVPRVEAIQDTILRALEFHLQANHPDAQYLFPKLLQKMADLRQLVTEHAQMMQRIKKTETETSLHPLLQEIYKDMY
Method: (§1) To determine species selectivity, a Mouse PPARα Reporter Assay System was used (Indigo Biosciences, Cat. #M00111). Activity of test compounds to antagonize or agonize other isoforms of human PPAR, for example β/δ and γ, were assessed using the corresponding kits from Indigo Biosciences (Cat. #IB00121 and #IB00101, respectively). In addition to PPAR activity, compounds were also screened for activity against other nuclear hormone receptors including Estrogen Receptor β, Glucocorticoid Receptor and Thyroid Receptor β using commercially available kits (Indigo Biosciences, Cat. #IB00411, IB00201 and IB01101, respectively). Each assay system from Indigo Biosciences uses technology analogous to the human
(§2) PPARα kit, with the variance being that the cells used for each assay were engineered to over-express the receptor of interest. In addition, the appropriate receptor agonist (included with each kit) was used at ˜EC80 for assays in which antagonist potency was being assessed.

PPAR gamma = target: T3, PPAR gamma (Homo sapiens, UniProt P37231); assay: PPAR γ reporter counterscreen (Indigo Biosciences kit); settings: receptor agonist at ~EC80 for antagonist potency
T3 construct: host or cells: engineered reporter cells of the kit (analogous to the PPARα kit: non-human mammalian)
T3 sequence (P37231 1-505): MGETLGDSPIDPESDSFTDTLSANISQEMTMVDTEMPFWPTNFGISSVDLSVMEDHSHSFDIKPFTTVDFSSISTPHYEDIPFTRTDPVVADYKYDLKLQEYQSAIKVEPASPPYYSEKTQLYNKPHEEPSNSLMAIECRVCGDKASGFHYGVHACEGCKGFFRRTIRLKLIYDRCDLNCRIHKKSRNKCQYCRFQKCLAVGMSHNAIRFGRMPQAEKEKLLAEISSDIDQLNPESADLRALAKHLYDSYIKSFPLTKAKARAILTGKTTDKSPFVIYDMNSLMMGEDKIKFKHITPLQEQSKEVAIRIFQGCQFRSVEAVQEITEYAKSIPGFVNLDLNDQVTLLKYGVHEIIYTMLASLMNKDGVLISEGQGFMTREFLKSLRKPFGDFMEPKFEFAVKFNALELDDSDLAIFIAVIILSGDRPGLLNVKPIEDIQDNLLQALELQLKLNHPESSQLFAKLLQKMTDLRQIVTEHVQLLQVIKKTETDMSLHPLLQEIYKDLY
Method: as §1, §2

Thyroid Receptor β = target: T4, Thyroid Receptor β (Homo sapiens, UniProt P10828); assay: Thyroid Receptor β reporter counterscreen (Indigo Biosciences kit); settings: receptor agonist at ~EC80 for antagonist potency
T4 construct: host or cells: engineered reporter cells of the kit
T4 sequence (P10828 1-461): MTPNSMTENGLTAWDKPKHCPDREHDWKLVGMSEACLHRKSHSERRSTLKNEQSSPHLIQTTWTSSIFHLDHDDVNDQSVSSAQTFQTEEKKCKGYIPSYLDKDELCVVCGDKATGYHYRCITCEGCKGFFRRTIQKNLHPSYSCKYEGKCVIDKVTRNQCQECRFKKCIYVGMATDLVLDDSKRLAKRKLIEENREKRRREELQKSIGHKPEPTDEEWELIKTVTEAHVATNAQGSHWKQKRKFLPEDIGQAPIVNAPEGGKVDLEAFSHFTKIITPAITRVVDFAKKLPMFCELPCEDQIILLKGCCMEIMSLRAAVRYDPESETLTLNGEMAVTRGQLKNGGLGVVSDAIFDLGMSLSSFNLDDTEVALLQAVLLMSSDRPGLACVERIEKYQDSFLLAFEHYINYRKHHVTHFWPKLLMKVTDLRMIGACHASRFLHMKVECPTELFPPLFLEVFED
Method: as §1, §2

Glucocorticoid Receptor = target: T5, Glucocorticoid Receptor (Homo sapiens, UniProt P04150); assay: Glucocorticoid Receptor reporter counterscreen (Indigo Biosciences kit); settings: receptor agonist at ~EC80 for antagonist potency
T5 construct: host or cells: engineered reporter cells of the kit
T5 sequence (P04150 1-777): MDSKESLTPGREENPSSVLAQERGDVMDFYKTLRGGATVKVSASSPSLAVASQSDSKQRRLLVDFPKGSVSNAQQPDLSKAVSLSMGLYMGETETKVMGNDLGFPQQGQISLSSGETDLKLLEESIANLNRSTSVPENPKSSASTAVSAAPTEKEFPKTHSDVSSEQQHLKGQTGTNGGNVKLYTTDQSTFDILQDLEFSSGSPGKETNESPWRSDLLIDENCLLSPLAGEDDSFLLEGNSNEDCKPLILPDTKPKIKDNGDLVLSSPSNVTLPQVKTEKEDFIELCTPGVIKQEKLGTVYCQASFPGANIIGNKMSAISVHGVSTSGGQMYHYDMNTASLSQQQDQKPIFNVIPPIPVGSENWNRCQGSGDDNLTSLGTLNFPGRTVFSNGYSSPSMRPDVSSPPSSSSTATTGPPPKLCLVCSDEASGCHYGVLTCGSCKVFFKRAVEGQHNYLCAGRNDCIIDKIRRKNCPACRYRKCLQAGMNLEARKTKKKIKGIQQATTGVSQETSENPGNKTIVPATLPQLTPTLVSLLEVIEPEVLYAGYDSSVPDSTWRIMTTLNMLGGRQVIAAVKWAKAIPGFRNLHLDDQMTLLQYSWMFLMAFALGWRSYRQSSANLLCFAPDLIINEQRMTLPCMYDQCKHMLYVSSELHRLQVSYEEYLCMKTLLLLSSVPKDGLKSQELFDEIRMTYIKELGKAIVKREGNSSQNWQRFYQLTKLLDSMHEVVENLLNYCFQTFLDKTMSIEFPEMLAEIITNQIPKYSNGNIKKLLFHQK
Method: as §1, §2

Estrogen Receptor β = target: T6, Estrogen Receptor β (Homo sapiens, UniProt Q92731); assay: Estrogen Receptor β reporter counterscreen (Indigo Biosciences kit); settings: receptor agonist at ~EC80 for antagonist potency
T6 construct: host or cells: engineered reporter cells of the kit
Method: as §1, §2

T6 sequence (Q92731 whole entry): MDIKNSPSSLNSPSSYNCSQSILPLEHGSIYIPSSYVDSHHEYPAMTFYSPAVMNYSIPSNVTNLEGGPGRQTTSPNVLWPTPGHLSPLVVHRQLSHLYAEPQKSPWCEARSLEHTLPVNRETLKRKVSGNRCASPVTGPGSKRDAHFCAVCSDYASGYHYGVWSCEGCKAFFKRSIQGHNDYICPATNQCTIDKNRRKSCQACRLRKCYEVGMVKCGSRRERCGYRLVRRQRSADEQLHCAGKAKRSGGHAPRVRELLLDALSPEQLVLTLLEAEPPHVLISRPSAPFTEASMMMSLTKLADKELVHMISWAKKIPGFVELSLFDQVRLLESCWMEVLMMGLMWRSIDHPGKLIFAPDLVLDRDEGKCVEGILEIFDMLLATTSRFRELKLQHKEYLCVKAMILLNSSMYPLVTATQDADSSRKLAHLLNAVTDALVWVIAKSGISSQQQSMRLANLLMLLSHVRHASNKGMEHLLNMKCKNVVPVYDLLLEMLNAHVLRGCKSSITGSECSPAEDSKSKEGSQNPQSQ

IC50 (human PPARα; Target Selectivity - Counterscreen table, read-out: PPAR alpha IC50): 0.0024 µM
IC50 (human PPARα; antagonism, luciferase reporter cells, overnight incubation, read-out: PPARα IC50): 0.0024 µM
IC50 (PPAR beta/delta): 22 µM
IC50 (PPAR gamma): 56 µM
IC50 (Thyroid Receptor β): 61 µM
IC50 (Glucocorticoid Receptor): 36 µM
IC50 (Estrogen Receptor β): 36 µM
SMILES: CC1(C)C(=O)N(c2ccc(C(F)(F)F)cc2)N=C1CCCc1ccc(OC2(C(=O)O)CCC2)cc1 [Example 50, 1-(4-(3-(4,4-dimethyl-5-oxo-1-(4-(trifluoromethyl)phenyl)-4,5-dihydro-1H-pyrazol-3-yl)propyl)phenoxy)cyclobutanecarboxylic acid]
